According to patent US8513271B2, “Pyrimidine compounds as delta opioid receptor modulators” (Janssen Pharmaceutica, NV, priority 2009, dated 2013):
Where two headings read alike, the source gives them in different places.

Legend:
[1] = molecular target: T1, delta opioid receptor (Rattus norvegicus, UniProt P33533); experiment: Rat brain delta opioid receptor binding assay; settings: rat forebrain, [3H]naltrindole ligand
T1 construct: the forebrains were homogenized in Tris buffer in a Teflon®-glass homogenizer; from tissue; host or cells: forebrain of male Wistar rats, particulate (membrane) preparation
T1 sequence (P33533 whole entry): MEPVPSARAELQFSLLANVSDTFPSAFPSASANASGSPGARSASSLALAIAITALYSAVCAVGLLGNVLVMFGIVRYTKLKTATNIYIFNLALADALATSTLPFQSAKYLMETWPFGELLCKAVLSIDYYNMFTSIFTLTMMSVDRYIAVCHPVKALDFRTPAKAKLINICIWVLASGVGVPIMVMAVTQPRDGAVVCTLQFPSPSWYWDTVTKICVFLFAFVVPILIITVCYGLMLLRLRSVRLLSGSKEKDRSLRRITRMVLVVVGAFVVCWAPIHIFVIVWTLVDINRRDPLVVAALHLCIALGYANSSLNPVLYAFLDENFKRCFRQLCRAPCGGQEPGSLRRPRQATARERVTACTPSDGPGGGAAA

[2] = molecular target: T2, delta opioid receptor (Mus musculus, UniProt P32300); experiment: [35S]GTPγS binding assay in NG108-15 cell membranes (delta opioid functional assay), 200 nM screen; type: biochemical; settings: NG108-15 cell membranes; for EC50 / GTPγS δ-RelEfficacy @200 nM: averages if tested more than once; for GTPγS δ-RelEfficacy @200 nM: 200 nM test compound, relative to calculated max of SNC80 dose response curve; for GTPγS δ-opioid receptor Rel Efficacy: relative efficacy from dose response
T2 construct: NG108-15 cell membranes were purchased from Applied Cell Sciences (Rockville, Md.); host or cells: NG108-15 cell membranes
T2 sequence (P32300 whole entry): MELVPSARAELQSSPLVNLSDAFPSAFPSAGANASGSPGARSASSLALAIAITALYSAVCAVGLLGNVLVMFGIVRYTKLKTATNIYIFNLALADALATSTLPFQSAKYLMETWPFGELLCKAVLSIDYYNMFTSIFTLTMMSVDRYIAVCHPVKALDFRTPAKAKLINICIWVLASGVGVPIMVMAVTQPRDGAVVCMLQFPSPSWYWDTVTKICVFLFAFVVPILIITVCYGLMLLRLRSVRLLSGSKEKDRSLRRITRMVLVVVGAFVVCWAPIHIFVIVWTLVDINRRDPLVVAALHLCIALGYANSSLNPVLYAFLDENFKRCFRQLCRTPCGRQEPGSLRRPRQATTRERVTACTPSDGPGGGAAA

[3] = δ-binding (Naltrindole ligand) Ki
[4] = read-out: GTPγS δ-opioid receptor EC50
[5] = read-out: δ-binding (Naltrindole ligand) Ki
[6] = GTPγS δ-opioid receptor EC50 (μM)

COc1ccc(Oc2nc(-c3cncc(C#N)c3)ncc2NCCN)cc1 [Cpd 293]
Ki [1, 3]: 8 nM
EC50 [2, 4]: 0.317 µM

Cc1nc2ccc(Oc3nc(-c4cncnc4)ncc3NC[C@@H]3CCCN3)cc2s1 [Cpd 91]
Ki [1, 3]: 22 nM
EC50 [2, 4]: > 10 µM

COc1ccc(Oc2nc(-c3cccc4cc[nH]c34)ncc2NC[C@@H]2CCCN2)cc1 [Cpd 119]
Ki [1, 5]: 4020 nM

Cc1nc2ccc(Oc3nc(-c4cncc(C#N)c4)ncc3NC[C@@H]3CCCN3)cc2s1 [Cpd 90]
Ki [1, 3]: 9 nM
EC50 [2, 4]: 0.923 µM

COc1ccc(Oc2nc(-c3cncc(S(C)(=O)=O)c3)ncc2NC[C@@H]2CCCN2)cc1 [Cpd 108]
Ki [1, 5]: 107 nM

COc1ccc(Oc2nc(-c3cc(C)cc(C)c3)ncc2NC[C@@H]2CCCN2)cc1 [Cpd 92]
Ki [1, 3]: 35 nM
EC50 [2, 4]: 0.47 µM

COc1ccc(Oc2nc(-c3cc(Cl)cc(Cl)c3)ncc2NC[C@@H]2CCCN2)cc1 [Cpd 94]
Ki [1, 5]: 143 nM

COc1ccc(Oc2nc(-c3cnccn3)ncc2NC[C@@H]2CCCN2)cc1 [Cpd 120]
Ki [1, 5]: 104 nM

CCCCOc1ccc(Oc2nc(-c3cncnc3)ncc2NC[C@@H]2CCCN2)cc1 [Cpd 126]
Ki [1, 5]: 565 nM

N#Cc1cncc(-c2ncc(NC[C@@H]3CCCN3)c(Oc3ccc(OCC(F)(F)F)cc3)n2)c1 [Cpd 122]
Ki [1, 5]: 122 nM

COc1ccc(Oc2nc(-c3cncc(F)c3)ncc2NCC2CNCCO2)cc1 (stereo not drawn) [Cpd 276]
Ki [1, 5]: 227 nM

COc1ccc(Oc2nc(-c3cccc4[nH]ccc34)ncc2NC[C@@H]2CCCN2)cc1 [Cpd 117]
Ki [1, 5]: 157 nM

CCCCOc1ccc(Oc2nc(-c3cncc(F)c3)ncc2NC[C@@H]2CCCN2)cc1 [Cpd 127]
Ki [1, 5]: 224 nM

COc1ccc(Oc2nc(-c3cncc(C#N)c3)ncc2N[C@H]2CCCNC2)cc1 [Cpd 199]
GTPγS δ-RelEfficacy @200 nM [2]: 0.615
GTPγS δ-opioid receptor Rel Efficacy [2]: 1.140

COc1ccc(Oc2nc(-c3cncc(F)c3)ncc2NC[C@@H]2CCCN2)cc1C [Cpd 205]
GTPγS δ-RelEfficacy @200 nM [2]: 0.609
EC50 [2, 6]: 0.044 µM
GTPγS δ-opioid receptor Rel Efficacy [2]: 1.178

COc1ccc(Oc2nc(-c3cncc(OC)c3)ncc2N[C@H]2CCC[C@@H](N)C2)cc1 [Cpd 312, N-[4-(4-Methoxy-phenoxy)-2-(5-methoxy-pyridin-3-yl)-pyrimidin-5-yl]-cyclohexane-(1R,3S)-1,3-diamine]
EC50 [2, 6]: 0.00435 µM
GTPγS δ-opioid receptor Rel Efficacy [2]: 1.007

O=C(Nc1cccc(Oc2nc(-c3cccnc3)ncc2NC[C@@H]2CCCN2)c1)OCc1ccccc1 [Cpd 188]
GTPγS δ-RelEfficacy @200 nM [2]: 0.779
EC50 [2, 4]: 0.219 µM
GTPγS δ-opioid receptor Rel Efficacy [2]: 1.950

Cc1ccc(Oc2nc(-c3cncc(F)c3)ncc2NC[C@@H]2CCCN2)cc1F [Cpd 185]
GTPγS δ-RelEfficacy @200 nM [2]: 0.447
EC50 [2, 4]: 0.101 µM
GTPγS δ-opioid receptor Rel Efficacy [2]: 1.014

CS(=O)(=O)c1ccc(Oc2nc(-c3cncc(F)c3)ncc2NC[C@@H]2CCCN2)cc1 [Cpd 222]
GTPγS δ-RelEfficacy @200 nM [2]: 0.284

COc1cncc(-c2ncc(NC[C@@H]3CCCN3)c(Oc3ccccc3Cl)n2)c1 [Cpd 232]
GTPγS δ-RelEfficacy @200 nM [2]: 0.679
EC50 [2, 4]: 0.143 µM
GTPγS δ-opioid receptor Rel Efficacy [2]: 1.021

CCc1ccc(Oc2nc(-c3cncc(Cl)c3)ncc2NC[C@@H]2CCCN2)cc1 [Cpd 180]
GTPγS δ-RelEfficacy @200 nM [2]: 0.250

COc1ccc(Oc2nc(-c3cnc(Cl)cc3C)ncc2NC[C@@H]2CCCN2)cc1 [Cpd 265]
EC50 [2, 6]: 0.053 µM
GTPγS δ-opioid receptor Rel Efficacy [2]: 1.024

COc1ccc(Oc2nc(-c3cccnc3)ncc2N2CCN[C@@H](C)C2)cc1 [Cpd 356]
EC50 [2, 4]: 0.031 µM
GTPγS δ-opioid receptor Rel Efficacy [2]: 1.030

COc1ccc(Oc2nc(-c3cncc(C)c3)ncc2NC2CCCC(N)C2)cc1 (stereo not drawn) [Cpd 315]
EC50 [2, 6]: 0.042 µM
GTPγS δ-opioid receptor Rel Efficacy [2]: 1.019

COc1ccc(Oc2nc(-c3cncc(C)c3)ncc2N[C@@H]2CCCNC2)cc1 [Cpd 258]
EC50 [2, 6]: 0.075 µM
GTPγS δ-opioid receptor Rel Efficacy [2]: 0.835

COc1ccc(Oc2nc(-c3cncc(OC)c3)ncc2NC2CCCC(N)C2)cc1 (mixture of isomers) [Cpd 309]
EC50 [2, 4]: 0.035 µM
GTPγS δ-opioid receptor Rel Efficacy [2]: 1.162

COc1ccc(Oc2nc(-c3cncc(C)c3)ncc2NCc2cnc[nH]2)cc1 [Cpd 291]
GTPγS δ-RelEfficacy @200 nM [2]: 0.303

Cc1ccccc1Oc1nc(-c2cncc(Cl)c2)ncc1NC[C@@H]1CCCN1 [Cpd 227]
GTPγS δ-RelEfficacy @200 nM [2]: 0.480
EC50 [2, 4]: 0.246 µM
GTPγS δ-opioid receptor Rel Efficacy [2]: 1.093

COc1ccc(Oc2nc(-c3cccnc3)ncc2NC2CCCC(N)C2)cc1 (stereo not drawn) [Cpd 306]
GTPγS δ-RelEfficacy @200 nM [2]: 0.910
EC50 [2, 6]: 0.031 µM
GTPγS δ-opioid receptor Rel Efficacy [2]: 1.127

FCc1ccc(Oc2nc(-c3cccnc3)ncc2NC[C@@H]2CCCN2)cc1 [Cpd 217, [4-(4-Fluoromethyl-phenoxy)-2-pyridin-3-yl-pyrimidin-5-yl]-pyrrolidin-2-(S)-ylmethyl-amine]
GTPγS δ-RelEfficacy @200 nM [2]: 0.480
EC50 [2, 4]: 0.612 µM
GTPγS δ-opioid receptor Rel Efficacy [2]: 0.882

CCCCOc1ccc(Oc2nc(-c3cncc(C#N)c3)ncc2NC[C@@H]2CCCN2)cc1 [Cpd 125]
Ki [1, 3]: 78 nM

O=CNc1ccc(Oc2nc(-c3cccnc3)ncc2NC[C@@H]2CCCN2)cc1 [Cpd 216]
GTPγS δ-RelEfficacy @200 nM [2]: 0.406
EC50 [2, 4]: 0.494 µM
GTPγS δ-opioid receptor Rel Efficacy [2]: 0.969

COc1ccc(Oc2nc(-c3cncc(SC)c3)ncc2N2CCNC(C)(C)C2)cc1 [Cpd 350]
EC50 [2, 6]: 0.083 µM
GTPγS δ-opioid receptor Rel Efficacy [2]: 1.079

COc1ccc(Oc2nc(-c3cccnc3)ncc2N[C@@H]2CCCNC2)cc1 [Cpd 261]
EC50 [2, 6]: 0.241 µM
GTPγS δ-opioid receptor Rel Efficacy [2]: 0.979

COCCOc1ccc(Oc2nc(-c3cncc(C)c3)ncc2NC[C@@H]2CCCN2)cc1 [Cpd 242]
GTPγS δ-RelEfficacy @200 nM [2]: 0.413

O=C(c1cccc(Oc2nc(-c3cncc(F)c3)ncc2NC[C@@H]2CCCN2)c1)N1CCCCC1 [Cpd 172]
GTPγS δ-RelEfficacy @200 nM [2]: 0.246

COc1ccc(Oc2nc(-c3cncc(OC)c3)ncc2N2CCNCC2)cc1 [Cpd 342]
EC50 [2, 6]: 0.0439 µM
GTPγS δ-opioid receptor Rel Efficacy [2]: 1.020

COc1ccc(Oc2nc(-c3cncc(OC)c3)ncc2NC[C@H]2C[C@@H](O)CN2)cc1 [Cpd 274, 5-(R)-{[4-(4-Methoxy-phenoxy)-2-(5-methoxy-pyridin-3-yl)-pyrimidin-5-ylamino]-methyl}-pyrrolidin-3-(R)-ol]
EC50 [2, 6]: 0.286 µM
GTPγS δ-opioid receptor Rel Efficacy [2]: 0.863

COc1ccc(Oc2nc(-c3cncc(Cl)c3)ncc2NC[C@@H]2CCCN2)cc1C [Cpd 210]
GTPγS δ-RelEfficacy @200 nM [2]: 0.730
EC50 [2, 6]: 0.044 µM
GTPγS δ-opioid receptor Rel Efficacy [2]: 1.150

COc1ccc(Oc2nc(-c3cccnc3)ncc2NC[C@@H]2C[C@@H](F)CN2)cc1 [Cpd 196]
GTPγS δ-RelEfficacy @200 nM [2]: 0.800
EC50 [2, 6]: 0.0693 µM
GTPγS δ-opioid receptor Rel Efficacy [2]: 1.146

COCCOc1ccc(Oc2nc(-c3cccnc3)ncc2NC[C@@H]2CCCN2)cc1 [Cpd 244]
GTPγS δ-RelEfficacy @200 nM [2]: 0.354

COc1ccc(Oc2nc(-c3cncc(OC)c3)ncc2N[C@@H]2CCCNC2)cc1 [Cpd 246]
EC50 [2, 6]: 0.078 µM
GTPγS δ-opioid receptor Rel Efficacy [2]: 1.043

CC(=O)Nc1ccc(Oc2nc(-c3cncc(F)c3)ncc2NC[C@@H]2CCCN2)cc1 [Cpd 212]
EC50 [2, 6]: 0.029 µM
GTPγS δ-opioid receptor Rel Efficacy [2]: 0.994

COc1ccc(Oc2nc(-c3ccc4cc[nH]c4c3)ncc2NC[C@@H]2CCCN2)cc1 [Cpd 118]
Ki [1, 5]: 155 nM

Cc1ccc(Oc2nc(-c3cncc(F)c3)ncc2NC[C@@H]2CCCN2)c(F)c1F [Cpd 191]
GTPγS δ-RelEfficacy @200 nM [2]: 0.410

c1cncc(-c2ncc(N3CCNCC3)c(Oc3ccc(C4CC4)cc3)n2)c1 [Cpd 320]
EC50 [2, 4]: 0.191 µM
GTPγS δ-opioid receptor Rel Efficacy [2]: 0.918
